Data as given in patent publication US6413970B1, “Pharmaceutical composition for treating viral diseases” (UCB S.A., priority 1996, dated 2002).
Counter-ions that a name gives are not always drawn.

Experiments:
Format in all cases: cell-based
[1] = tested on: respiratory syncytial virus (RSV); test: RSV-specific mRNA (SH gene) expression in RSV-treated human PMN, RT-PCR; conditions: human PMN 1×10^6/ml, RSV 1 m.o.i., cetirizine 100-, 0.1-, 0.01 μg/10^6 PMN, 2 hours and 16 hours at 37° C., FIG. 2
Method: (§1) Human granulocytes were isolated from 200 ml of heparinized blood (15 U ml) from healthy donors separated on a Ficoll-metrizoate gradient followed by dextran sedimentation and washed twice at 300 g. This method led to more than 95% pure PMN. The cells were diluted to a final density of 1×10^6 PMN.
(§2) Virus preparation was performed as described by R. ARNOLD et al. in Immunology 82, 126-133 (1994). For crude preparation, respiratory syncytial virus (RSV), Long Stain (ATCC), was grown and titrated in HEP-2 cells. The RSV titre was determined in a plaque-forming unit (PFU) assay. The stock titre of the virus pool used in the study was 5×10^6 PFU/ml. The stock solution was stored at −70° C. until use. Interleukin-8 (IL-8) levels were under the detection limit in the stock solution, as analysed by enzyme-linked immuno sorbent assay (ELISA). The absence of mycoplasma infection was verified by microplasma-specific PCR. […]
The analysis of RSV-specific genomic RNA was performed by coupled reverse transcription and polymerase chain reaction PCR detection of RSV-genomic-RNA encoding for the small hydrophobic protein (SH) of RSV as described previously by R. ARNOLD et al. in Immunology 82, 126-133 (1994). […] Expression of genomic RSVSH RNA was analysed after reverse transcription with sense primers and PCR amplification of the cDNA transcripts. […]

[2] = tested on: RSV-induced IL-8 release from human PMN; test: RSV-induced IL-8 release from human PMN, ELISA
Method: as §1, §2
(§3) PMN were suspended in RPMI medium at a concentration of 1×10^6/ml. […] Culture supernatants were collected and analyzed for their IL-8 content. IL-8 release was determined using a sandwich ELISA according to the method indicated hereinbefore. […] After addition of p-nitrophenylphosphate (15 mg/ml) for quantification, an ELISA reader and for calculation Mikrotek software (SLT Labinstruments, Crailsheim, Germany) were used. […]

[3] = tested on: ongoing IL-8 release induced by RSV, human PMN; test: Ongoing IL-8 release induced by RSV in human PMN, delayed cetirizine addition, ELISA
Method: as §1, §2, §3

O=C(O)COCCN1CCN(C(c2ccccc2)c2ccc(Cl)cc2)CC1 (racemic) [cetirizine dihydrochloride, 2-[2-[4-[(4-chlorophenyl)phenylmethyl]-1-piperazinyl]ethoxy]-acetic acid]
RSV-specific mRNA expression of the small hydrophobic (SH) gene [1]: inhibits RSV-specific mRNA expression | RSV-induced IL-8 release at the stated concentration range ([2]; cetirizine at concentrations <0.01 μg/ml but >100 μg/ml (so in the source), similar after incubation up to 24 hours and RSV up to 5 m.o.i.): significant reduction in RSV-induced IL-8 release | RSV-induced IL-8 release ([2]; human PMN 1×10^6/ml, total incubation 2 hours at 37° C., cetirizine 100-0.01 μg/ml, dose-dependent, 8 independent experiments, FIG. 3): down-regulated the RSV-induced IL-8 release | Down regulation of RSV-induced IL-8 release, concentration range of strongest effect ([3]; cetirizine concentrations >0.01 μg/ml and <10 μg/ml, strongest when added at the onset of RSV treatment): most pronounced | ongoing IL-8 release by RSV ([3]; human PMN 1×10^6/ml, RSV 1 m.o.i., cetirizine 100 μg, 10 μg, 0.01 μg added immediately, 30, 60 or 90 minutes after onset of RSV treatment, total 2 hours at 37° C., FIG. 4A-D): down regulates an ongoing IL-8 release by RSV
